The values below come from PMC11418212, “Characterization of four structurally diverse inhibitors of SUR2-containing KATP channels” (Channels, 2024).

What all share (type): cell-based
The target in one test is T1, Kir6.1/SUR2B (Homo sapiens, UniProt O60706).
T1 construct: expressed in transfected cells; Kir6.1 tetracycline-inducible, SUR2B constitutive
As to the kind of experiment: Quantitative thallium flux assay, inhibition, stably transfected T-REx-HEK293 cells.

A further test deals with T2, Kir3.1/3.2 (Homo sapiens, UniProt P48051+P48549).
T2 construct: expressed in transfected cells
T2 sequence (P48549 1-501): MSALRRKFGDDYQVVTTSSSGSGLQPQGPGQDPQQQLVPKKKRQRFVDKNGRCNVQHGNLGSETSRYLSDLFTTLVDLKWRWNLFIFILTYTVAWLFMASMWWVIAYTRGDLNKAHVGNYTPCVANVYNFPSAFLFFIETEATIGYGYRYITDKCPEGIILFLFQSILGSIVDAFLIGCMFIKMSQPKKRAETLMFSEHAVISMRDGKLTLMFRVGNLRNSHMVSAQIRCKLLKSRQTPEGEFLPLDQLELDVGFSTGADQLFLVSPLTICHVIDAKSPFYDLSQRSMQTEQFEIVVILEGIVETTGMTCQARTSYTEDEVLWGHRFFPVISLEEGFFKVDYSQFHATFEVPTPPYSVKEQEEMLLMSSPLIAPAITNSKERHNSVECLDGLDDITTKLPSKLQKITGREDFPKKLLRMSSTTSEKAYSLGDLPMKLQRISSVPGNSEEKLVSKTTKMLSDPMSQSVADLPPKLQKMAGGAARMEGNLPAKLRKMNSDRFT
T2 sequence (P48051 1-423): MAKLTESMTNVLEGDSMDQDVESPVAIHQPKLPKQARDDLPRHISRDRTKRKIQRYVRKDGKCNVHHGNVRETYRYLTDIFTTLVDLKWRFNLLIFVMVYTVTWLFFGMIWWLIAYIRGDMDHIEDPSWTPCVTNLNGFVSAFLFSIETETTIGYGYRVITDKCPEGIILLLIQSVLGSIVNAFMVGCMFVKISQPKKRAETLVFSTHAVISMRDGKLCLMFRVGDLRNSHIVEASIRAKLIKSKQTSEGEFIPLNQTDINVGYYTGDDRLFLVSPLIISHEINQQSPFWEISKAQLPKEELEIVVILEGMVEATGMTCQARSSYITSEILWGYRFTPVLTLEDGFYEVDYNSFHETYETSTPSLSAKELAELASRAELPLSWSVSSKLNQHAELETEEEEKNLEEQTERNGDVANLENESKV
As to the kind of experiment: Kir family selectivity thallium flux assay.

For another test, the target named is T3, Kir2.3 (Homo sapiens, UniProt P48050).
T3 construct: expressed in transfected cells
T3 sequence (P48050 1-445): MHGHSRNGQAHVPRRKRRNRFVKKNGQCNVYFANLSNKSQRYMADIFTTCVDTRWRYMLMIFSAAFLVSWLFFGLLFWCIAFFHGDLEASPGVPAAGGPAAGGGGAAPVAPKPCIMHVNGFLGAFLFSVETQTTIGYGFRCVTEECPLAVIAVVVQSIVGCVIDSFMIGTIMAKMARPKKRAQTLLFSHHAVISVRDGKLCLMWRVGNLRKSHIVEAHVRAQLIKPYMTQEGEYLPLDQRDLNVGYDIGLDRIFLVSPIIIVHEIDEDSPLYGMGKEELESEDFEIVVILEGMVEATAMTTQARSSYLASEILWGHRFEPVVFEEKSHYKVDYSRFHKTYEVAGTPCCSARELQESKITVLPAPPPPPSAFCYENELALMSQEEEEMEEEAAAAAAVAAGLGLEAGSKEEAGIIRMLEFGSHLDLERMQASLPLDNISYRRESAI
As to the kind of experiment: Kir family selectivity thallium flux assay.

Another test has as its target T4, Kir2.2 (Homo sapiens, UniProt Q14500).
T4 construct: expressed in transfected cells
T4 sequence (Q14500 1-433): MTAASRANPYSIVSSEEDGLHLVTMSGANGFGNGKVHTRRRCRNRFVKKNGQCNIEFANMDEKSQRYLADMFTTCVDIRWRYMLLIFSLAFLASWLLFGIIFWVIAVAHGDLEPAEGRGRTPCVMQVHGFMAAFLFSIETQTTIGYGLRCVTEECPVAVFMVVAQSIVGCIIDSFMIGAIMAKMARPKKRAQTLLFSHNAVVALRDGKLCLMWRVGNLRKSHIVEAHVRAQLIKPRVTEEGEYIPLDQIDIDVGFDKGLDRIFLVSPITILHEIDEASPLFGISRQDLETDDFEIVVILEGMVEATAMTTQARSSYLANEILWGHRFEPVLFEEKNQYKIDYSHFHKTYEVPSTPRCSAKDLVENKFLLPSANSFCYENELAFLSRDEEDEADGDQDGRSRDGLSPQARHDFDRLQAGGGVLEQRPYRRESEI
As to the kind of experiment: Kir family selectivity thallium flux assay.

Where [1] appears, read: ATP depletion with sodium cyanide and 2-deoxy-glucose, read-out: IC50 Kir6.1/SUR2B, ATP depletion.
Setting [2] is: channels activated with 10 µM pinacidil, read-out: IC50 Kir6.1/SUR2B, pinacidil activation.

pIC50: −log10 of the molar value. Values joined by “and” are separate entries in the source; they are usually repeats but may differ in a detail not shown here. Equal values may be shown once. Read-outs that look alike come from different tables or passages of the source.

T1 sequence (O60706 1-1549 isoform O60706-2, species assumed): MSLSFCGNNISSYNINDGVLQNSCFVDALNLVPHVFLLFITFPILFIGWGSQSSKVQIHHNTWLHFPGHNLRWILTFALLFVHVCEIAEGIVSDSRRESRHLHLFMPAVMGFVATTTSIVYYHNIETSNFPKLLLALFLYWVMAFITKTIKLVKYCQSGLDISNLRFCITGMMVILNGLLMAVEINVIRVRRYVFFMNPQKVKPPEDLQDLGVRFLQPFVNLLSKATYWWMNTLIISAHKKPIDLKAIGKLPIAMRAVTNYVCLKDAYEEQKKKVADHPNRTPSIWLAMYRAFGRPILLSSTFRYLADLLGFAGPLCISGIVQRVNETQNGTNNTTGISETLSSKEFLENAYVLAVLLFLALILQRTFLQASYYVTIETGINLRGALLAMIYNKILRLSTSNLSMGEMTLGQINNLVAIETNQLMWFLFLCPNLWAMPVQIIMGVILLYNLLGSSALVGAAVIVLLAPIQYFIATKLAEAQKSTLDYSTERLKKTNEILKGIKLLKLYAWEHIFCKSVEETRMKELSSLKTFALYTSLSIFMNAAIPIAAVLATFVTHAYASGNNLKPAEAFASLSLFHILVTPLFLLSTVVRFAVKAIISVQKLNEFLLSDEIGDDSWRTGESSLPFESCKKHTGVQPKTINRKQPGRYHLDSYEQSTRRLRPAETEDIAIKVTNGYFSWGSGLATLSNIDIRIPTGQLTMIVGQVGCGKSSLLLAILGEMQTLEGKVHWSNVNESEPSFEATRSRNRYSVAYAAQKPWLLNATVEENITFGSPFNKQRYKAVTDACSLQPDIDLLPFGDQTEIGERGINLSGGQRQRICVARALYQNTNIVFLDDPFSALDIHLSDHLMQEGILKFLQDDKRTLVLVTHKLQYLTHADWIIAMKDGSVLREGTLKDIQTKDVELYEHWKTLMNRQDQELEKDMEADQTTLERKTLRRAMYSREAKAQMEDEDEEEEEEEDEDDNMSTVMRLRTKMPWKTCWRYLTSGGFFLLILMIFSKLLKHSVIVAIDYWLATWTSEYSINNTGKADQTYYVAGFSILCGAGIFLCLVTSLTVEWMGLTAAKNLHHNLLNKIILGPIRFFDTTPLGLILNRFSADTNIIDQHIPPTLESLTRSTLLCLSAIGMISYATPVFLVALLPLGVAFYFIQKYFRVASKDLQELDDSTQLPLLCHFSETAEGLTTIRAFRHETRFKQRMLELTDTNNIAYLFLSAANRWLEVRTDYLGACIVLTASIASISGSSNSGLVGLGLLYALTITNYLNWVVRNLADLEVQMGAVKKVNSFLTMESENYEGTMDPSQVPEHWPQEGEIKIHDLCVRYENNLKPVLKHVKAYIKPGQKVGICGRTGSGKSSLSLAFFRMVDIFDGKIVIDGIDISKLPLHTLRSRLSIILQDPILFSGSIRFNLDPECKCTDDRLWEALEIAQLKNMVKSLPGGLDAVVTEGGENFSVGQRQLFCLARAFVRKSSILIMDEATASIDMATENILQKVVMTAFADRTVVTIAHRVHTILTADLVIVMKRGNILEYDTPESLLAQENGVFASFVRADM
T1 sequence (Q15842 whole entry partner, species assumed): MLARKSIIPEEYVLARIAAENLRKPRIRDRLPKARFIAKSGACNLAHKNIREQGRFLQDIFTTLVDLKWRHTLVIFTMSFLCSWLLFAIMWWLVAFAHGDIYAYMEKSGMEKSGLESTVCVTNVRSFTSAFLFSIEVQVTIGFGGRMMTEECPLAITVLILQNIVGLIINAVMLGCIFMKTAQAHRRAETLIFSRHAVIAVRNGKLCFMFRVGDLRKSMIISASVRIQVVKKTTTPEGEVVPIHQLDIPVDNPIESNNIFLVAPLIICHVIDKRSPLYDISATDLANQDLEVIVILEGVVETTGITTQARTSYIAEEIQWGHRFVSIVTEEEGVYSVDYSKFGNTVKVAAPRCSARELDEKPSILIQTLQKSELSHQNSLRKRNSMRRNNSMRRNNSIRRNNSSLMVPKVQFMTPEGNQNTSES

`c1ccc2[nH]c(CSc3ncnc4c3oc3ccccc34)nc2c1` [VU0212387, 4-(((1 H-benzo[d]imidazol-2-yl)methyl)thio)benzofuro[3,2-d]pyrimidine]: the pIC50 is 6.21 and 6.22 on Kir6.1/SUR2B (setting [1]); 5.85 on Kir6.1/SUR2B (setting [2]); less than 4.52 on Kir3.1/3.2; less than 4.52 at Kir2.3; less than 4.52 at Kir2.2.

On to `O=C(NCC(O)(c1ccccc1)C(F)(F)F)c1ccc(OC(F)(F)F)cc1` (centres unmarked) [VU0543336, N-(3,3,3-trifluoro-2-hydroxy-2-phenylpropyl)-4-(trifluoromethoxy)benzamide], for which the pIC50 on Kir6.1/SUR2B (setting [1]) is 6.90 and 7.00; on Kir6.1/SUR2B (setting [2]), 6.57 and 6.52; at Kir3.1/3.2 it was less than 4.52; at Kir2.3, less than 4.52; at Kir2.2, less than 4.52.

In the case of `O=C(NCc1cc(-c2ccncc2)n(C2CCCC2)n1)Nc1cccs1` [VU0544086, 1-((1-cyclopentyl-5-(pyridin-4-yl)-1 H-pyrazol-3-yl)methyl)-3-(thiophen-2-yl)urea], the pIC50 at Kir6.1/SUR2B (setting [1]) is 6.00; at Kir6.1/SUR2B (setting [2]), 6.00; at Kir3.1/3.2, less than 4.52; at Kir2.3, less than 4.52; on Kir2.2 it was less than 4.52.

For `O=C1c2oc3ccccc3c(=O)c2C(c2cccc(Br)c2)N1CCO` (centres unmarked) [VU0605768, 1-(3-bromophenyl)-2-(2-hydroxyethyl)-1,2-dihydrochromeno[2,3-c]pyrrole-3,9-dione], the pIC50 was 6.11 at Kir6.1/SUR2B (setting [1]); 6.32 on Kir6.1/SUR2B (setting [2]); less than 4.52 on Kir3.1/3.2; less than 4.52 on Kir2.3; less than 4.52 at Kir2.2.
